Laboratory results reported in ChEMBL document CHEMBL5352478, “Novel pyridine-containing histone deacetylase inhibitors strongly arrest proliferation, induce apoptosis and modulate miRNAs in cancer cells” (Eur J Med Chem, 2023).
“And” between values parts separate entries of the source, which are not always exact repeats. Equal entries are not always repeated.

Tests used:
Histone deacetylase 1 = Histone deacetylase 1 (Homo sapiens, UniProt Q13547)
Histone deacetylase 3 = Histone deacetylase 3 (Homo sapiens, UniProt O15379)
Sequence of Histone deacetylase 3 (O15379 whole entry): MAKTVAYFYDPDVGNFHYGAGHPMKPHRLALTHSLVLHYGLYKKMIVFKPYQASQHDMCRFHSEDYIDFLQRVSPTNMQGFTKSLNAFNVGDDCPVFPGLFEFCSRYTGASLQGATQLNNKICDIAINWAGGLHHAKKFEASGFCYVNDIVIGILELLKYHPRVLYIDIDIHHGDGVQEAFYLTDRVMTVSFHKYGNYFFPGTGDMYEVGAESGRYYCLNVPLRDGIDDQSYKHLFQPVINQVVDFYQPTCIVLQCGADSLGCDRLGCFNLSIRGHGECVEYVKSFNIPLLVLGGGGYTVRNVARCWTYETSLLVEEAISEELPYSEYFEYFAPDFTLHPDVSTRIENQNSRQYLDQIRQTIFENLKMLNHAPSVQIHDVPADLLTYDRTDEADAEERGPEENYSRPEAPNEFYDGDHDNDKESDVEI

Histone deacetylase 4 = Histone deacetylase 4 (Homo sapiens, UniProt P56524)
Sequence of Histone deacetylase 4 (P56524 whole entry): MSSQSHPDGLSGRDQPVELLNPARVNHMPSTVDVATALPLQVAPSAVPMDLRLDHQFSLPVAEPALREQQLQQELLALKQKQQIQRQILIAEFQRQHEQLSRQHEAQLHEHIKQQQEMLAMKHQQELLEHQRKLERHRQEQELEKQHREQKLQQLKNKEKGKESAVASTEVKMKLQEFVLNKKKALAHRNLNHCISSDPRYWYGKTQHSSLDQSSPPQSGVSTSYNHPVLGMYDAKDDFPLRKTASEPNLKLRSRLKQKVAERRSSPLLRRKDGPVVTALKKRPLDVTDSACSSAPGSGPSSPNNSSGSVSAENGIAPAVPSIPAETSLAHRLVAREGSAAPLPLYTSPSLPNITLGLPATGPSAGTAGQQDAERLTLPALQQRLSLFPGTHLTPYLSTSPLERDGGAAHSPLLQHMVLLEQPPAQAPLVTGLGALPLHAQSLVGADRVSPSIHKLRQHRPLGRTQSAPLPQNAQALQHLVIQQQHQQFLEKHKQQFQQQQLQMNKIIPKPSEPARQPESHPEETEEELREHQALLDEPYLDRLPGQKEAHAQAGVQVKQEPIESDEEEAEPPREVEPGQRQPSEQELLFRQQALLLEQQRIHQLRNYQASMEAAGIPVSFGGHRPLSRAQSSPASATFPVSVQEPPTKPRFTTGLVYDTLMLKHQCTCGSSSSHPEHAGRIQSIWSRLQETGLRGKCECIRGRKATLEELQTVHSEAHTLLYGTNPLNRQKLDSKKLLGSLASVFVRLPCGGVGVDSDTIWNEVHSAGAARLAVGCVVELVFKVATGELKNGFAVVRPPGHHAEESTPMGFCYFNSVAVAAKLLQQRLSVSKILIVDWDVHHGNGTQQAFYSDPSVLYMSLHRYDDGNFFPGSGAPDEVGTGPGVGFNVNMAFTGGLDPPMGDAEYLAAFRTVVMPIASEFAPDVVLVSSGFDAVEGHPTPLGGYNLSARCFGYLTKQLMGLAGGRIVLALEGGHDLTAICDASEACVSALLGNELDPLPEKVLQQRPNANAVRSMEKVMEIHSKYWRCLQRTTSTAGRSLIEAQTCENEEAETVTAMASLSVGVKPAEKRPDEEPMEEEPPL

Histone deacetylase 2 = Histone deacetylase 2 (Homo sapiens, UniProt Q92769)
Sequence of Histone deacetylase 2 (Q92769 whole entry): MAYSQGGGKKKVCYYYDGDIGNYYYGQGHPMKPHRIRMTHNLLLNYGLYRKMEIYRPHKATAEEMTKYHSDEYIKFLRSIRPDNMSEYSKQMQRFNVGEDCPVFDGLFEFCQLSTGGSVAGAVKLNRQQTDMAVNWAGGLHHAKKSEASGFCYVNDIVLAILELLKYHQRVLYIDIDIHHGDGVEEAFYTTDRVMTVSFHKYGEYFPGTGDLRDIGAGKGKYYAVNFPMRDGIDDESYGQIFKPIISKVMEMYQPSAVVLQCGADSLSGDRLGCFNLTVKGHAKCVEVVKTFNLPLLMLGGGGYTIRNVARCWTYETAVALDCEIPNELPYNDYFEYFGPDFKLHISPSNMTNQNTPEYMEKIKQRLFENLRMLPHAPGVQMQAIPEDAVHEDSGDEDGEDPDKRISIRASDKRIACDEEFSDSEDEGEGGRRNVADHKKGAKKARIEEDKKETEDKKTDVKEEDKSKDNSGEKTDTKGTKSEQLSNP

Histone deacetylase 5 = Histone deacetylase 5 (Homo sapiens, UniProt Q9UQL6)
Sequence of Histone deacetylase 5 (Q9UQL6 whole entry): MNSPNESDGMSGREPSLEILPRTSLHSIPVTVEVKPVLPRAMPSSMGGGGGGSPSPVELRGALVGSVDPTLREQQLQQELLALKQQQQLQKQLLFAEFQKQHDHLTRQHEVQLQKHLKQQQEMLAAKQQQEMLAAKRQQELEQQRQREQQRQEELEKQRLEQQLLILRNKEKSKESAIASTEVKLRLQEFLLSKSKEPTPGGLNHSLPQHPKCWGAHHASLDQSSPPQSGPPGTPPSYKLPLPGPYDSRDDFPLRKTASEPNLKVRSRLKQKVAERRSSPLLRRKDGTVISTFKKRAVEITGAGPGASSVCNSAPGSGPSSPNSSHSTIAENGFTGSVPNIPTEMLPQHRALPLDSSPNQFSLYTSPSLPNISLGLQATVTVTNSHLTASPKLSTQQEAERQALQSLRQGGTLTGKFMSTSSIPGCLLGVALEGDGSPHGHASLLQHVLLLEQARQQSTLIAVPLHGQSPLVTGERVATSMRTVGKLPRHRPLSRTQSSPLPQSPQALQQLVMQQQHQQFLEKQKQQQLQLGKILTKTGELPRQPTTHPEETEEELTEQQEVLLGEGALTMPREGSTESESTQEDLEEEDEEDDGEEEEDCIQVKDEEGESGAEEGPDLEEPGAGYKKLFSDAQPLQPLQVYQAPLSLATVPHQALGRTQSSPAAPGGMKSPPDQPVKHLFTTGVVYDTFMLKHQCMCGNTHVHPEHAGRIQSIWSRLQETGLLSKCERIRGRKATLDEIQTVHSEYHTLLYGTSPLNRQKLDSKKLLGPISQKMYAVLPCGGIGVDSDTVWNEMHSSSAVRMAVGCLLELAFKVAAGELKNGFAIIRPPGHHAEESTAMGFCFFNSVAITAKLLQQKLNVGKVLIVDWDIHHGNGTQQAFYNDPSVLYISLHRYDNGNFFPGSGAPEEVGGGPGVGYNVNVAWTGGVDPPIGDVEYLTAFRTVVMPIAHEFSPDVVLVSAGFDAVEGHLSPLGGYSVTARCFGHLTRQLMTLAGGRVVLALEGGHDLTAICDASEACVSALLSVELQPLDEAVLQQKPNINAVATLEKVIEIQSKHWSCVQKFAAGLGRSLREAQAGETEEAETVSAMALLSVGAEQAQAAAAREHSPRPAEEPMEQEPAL

[1] = biological target: T1, Polyamine deacetylase HDAC10 (Homo sapiens, UniProt Q969S8)
T1 sequence (Q969S8 whole entry): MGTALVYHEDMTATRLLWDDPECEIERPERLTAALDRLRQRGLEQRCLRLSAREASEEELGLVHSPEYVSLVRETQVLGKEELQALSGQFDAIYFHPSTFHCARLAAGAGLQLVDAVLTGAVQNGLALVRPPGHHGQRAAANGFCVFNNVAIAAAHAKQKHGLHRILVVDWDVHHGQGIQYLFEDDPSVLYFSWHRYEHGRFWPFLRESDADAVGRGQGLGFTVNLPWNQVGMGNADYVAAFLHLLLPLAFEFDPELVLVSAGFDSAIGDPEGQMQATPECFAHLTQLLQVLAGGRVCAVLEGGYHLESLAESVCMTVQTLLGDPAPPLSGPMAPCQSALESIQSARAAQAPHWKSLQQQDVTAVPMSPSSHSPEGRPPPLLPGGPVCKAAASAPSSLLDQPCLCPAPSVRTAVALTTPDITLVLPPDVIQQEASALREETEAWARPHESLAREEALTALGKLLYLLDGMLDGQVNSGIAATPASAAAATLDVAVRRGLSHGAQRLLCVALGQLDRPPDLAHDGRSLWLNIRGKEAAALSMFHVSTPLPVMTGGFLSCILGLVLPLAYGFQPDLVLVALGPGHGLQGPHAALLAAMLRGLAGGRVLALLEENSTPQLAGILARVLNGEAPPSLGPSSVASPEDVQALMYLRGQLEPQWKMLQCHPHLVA

HCT-116 = assay: cells; format: functional, cell-based; settings: Homo sapiens, HCT-116, 72 h
A549 = assay: cells; format: functional, cell-based; settings: Homo sapiens, A549, 72 h
K562 [2] = assay: cells; format: functional, cell-based; settings: Homo sapiens, K562, 72 h
U-937 [3] = assay: Induction of cell cycle arrest in human U-937 cells assessed as accumulation of cells in pre-G1 phase at 5 uM for 24 hrs by PI staining based flow cytometric analysis; format: functional
U-937 [4] = assay: Induction of cell cycle arrest in human U-937 cells assessed as accumulation of cells in pre-G1 phase at 5 uM for 48 hrs by PI staining based flow cytometric analysis; format: functional
U-937 [5] = assay: Induction of cell cycle arrest in human U-937 cells assessed as cell death at 5 uM for 48 hrs by PI staining based flow cytometric analysis; format: functional
U-937 [6] = assay: Induction of cell cycle arrest in human U-937 cells assessed as accumulation of cells in G1 phase at 1 to 5 uM for 48 hrs by PI staining based flow cytometric analysis; format: functional; settings: dose 1-5 µM
OCI-AML-3 = assay: Antiproliferative activity against human OCI-AML-3 cells incubated for 48 hrs; format: functional, cell-based; settings: OCI-AML-3, 48 h
[7] = Antiproliferative activity against human IMS-M2 cells incubated for 48 hrs; format: functional, cell-based; settings: IMS-M2, 48 h
OCI-AML2 = assay: Antiproliferative activity against human OCI-AML2 cells incubated for 48 hrs; format: functional, cell-based; settings: OCI-AML2, 48 h
MV4-11 = assay: Antiproliferative activity against human MV4-11 cells incubated for 48 hrs; format: functional, cell-based; settings: MV4-11, 48 h
Kasumi 1 = assay: Antiproliferative activity against human Kasumi 1 cells incubated for 48 hrs; format: functional, cell-based; settings: Kasumi 1, 48 h
U-937 [8] = assay: Antiproliferative activity against human U-937 cells incubated for 48 hrs; format: functional, cell-based; settings: U-937, 48 h
HL-60 = assay: Antiproliferative activity against human HL-60 cells incubated for 48 hrs; format: functional, cell-based; settings: HL-60, 48 h
KARPAS-299 = assay: Antiproliferative activity against human KARPAS-299 cells incubated for 48 hrs; format: functional, cell-based; settings: KARPAS-299, 48 h
NB-4 = assay: Antiproliferative activity against human NB4 cells incubated for 48 hrs; format: functional, cell-based; settings: NB-4, 48 h
Histone deacetylase 8 = biological target: T2, Histone deacetylase 8 (Homo sapiens, UniProt Q9BY41)
T2 sequence (Q9BY41 whole entry): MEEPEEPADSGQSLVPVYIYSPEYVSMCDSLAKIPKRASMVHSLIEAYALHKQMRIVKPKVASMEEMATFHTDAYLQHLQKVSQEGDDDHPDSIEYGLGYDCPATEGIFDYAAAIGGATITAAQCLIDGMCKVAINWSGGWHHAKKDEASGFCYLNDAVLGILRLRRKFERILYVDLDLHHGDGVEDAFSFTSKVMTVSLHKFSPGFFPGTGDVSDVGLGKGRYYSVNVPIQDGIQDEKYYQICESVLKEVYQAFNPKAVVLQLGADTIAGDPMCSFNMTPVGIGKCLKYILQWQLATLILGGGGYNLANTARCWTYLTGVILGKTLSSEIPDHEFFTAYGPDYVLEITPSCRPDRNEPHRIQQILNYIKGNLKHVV

Histone deacetylase 7 = biological target: T3, Histone deacetylase 7 (Homo sapiens, UniProt Q8WUI4)
T3 sequence (Q8WUI4 whole entry): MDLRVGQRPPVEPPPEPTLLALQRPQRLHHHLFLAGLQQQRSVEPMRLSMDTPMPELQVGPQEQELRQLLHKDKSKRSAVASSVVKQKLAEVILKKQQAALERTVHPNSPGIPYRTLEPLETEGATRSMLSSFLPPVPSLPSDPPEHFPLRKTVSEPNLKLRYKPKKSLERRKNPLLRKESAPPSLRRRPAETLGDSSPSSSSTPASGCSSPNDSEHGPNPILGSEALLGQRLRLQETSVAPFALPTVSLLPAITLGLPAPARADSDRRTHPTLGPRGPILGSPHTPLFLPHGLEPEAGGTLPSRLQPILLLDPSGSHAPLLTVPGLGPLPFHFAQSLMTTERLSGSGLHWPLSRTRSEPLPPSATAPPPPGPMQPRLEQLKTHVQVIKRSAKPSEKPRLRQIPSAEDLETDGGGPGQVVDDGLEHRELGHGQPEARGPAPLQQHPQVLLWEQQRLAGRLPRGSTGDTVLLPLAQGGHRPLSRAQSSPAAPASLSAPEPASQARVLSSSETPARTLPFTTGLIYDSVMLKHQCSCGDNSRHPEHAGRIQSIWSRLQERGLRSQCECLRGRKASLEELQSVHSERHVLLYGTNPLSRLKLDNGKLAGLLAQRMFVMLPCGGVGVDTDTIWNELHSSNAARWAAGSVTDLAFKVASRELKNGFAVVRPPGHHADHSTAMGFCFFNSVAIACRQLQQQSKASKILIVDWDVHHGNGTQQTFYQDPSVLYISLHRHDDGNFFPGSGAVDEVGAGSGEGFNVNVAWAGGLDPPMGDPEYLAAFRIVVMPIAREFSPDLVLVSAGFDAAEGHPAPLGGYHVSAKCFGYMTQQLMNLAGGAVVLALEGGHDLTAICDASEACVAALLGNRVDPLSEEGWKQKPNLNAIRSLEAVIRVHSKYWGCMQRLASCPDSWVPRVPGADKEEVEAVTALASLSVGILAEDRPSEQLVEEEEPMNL

Histone deacetylase 9 = Histone deacetylase 9 (Homo sapiens, UniProt Q9UKV0)
Sequence of Histone deacetylase 9 (Q9UKV0 whole entry): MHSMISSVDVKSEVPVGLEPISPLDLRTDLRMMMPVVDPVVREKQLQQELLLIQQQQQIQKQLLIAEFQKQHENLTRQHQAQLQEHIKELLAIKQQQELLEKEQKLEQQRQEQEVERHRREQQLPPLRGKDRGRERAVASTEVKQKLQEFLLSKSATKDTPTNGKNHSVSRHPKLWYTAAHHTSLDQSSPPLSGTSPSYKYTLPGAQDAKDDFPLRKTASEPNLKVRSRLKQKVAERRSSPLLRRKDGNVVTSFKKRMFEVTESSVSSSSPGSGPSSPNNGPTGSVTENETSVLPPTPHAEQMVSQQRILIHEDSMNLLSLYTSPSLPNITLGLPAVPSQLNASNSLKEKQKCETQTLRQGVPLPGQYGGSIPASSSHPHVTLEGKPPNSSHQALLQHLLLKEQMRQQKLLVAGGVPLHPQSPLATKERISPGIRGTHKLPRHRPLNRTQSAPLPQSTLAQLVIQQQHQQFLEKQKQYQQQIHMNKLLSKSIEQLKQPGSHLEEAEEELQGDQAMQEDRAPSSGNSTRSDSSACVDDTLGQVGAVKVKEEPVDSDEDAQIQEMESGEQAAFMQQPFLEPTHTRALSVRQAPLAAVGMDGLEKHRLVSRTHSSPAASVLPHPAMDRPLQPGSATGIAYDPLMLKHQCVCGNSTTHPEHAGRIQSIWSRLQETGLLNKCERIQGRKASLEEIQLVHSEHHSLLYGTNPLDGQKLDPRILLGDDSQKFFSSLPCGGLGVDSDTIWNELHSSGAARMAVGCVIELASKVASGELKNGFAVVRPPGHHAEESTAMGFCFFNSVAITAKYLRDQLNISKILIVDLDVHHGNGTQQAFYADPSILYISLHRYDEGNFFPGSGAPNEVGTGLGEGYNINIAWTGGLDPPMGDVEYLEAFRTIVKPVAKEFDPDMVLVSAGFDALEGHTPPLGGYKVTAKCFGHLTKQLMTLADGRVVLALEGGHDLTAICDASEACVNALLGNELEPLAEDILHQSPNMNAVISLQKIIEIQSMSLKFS

Histone deacetylase 11 = biological target: T4, Histone deacetylase 11 (Homo sapiens, UniProt Q96DB2)
T4 sequence (Q96DB2 whole entry): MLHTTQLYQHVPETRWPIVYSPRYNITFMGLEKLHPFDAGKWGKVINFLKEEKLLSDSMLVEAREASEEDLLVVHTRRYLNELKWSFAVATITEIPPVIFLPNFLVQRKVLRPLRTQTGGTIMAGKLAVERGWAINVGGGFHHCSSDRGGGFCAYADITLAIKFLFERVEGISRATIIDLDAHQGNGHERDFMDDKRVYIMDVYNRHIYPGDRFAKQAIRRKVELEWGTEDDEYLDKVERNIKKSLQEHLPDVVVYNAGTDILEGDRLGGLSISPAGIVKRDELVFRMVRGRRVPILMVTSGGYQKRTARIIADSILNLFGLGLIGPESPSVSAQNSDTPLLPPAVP

[9] = biological target: T5, Protein deacetylase HDAC6 (Homo sapiens, UniProt Q9UBN7); settings: read-out: IC50
T5 sequence (Q9UBN7 whole entry): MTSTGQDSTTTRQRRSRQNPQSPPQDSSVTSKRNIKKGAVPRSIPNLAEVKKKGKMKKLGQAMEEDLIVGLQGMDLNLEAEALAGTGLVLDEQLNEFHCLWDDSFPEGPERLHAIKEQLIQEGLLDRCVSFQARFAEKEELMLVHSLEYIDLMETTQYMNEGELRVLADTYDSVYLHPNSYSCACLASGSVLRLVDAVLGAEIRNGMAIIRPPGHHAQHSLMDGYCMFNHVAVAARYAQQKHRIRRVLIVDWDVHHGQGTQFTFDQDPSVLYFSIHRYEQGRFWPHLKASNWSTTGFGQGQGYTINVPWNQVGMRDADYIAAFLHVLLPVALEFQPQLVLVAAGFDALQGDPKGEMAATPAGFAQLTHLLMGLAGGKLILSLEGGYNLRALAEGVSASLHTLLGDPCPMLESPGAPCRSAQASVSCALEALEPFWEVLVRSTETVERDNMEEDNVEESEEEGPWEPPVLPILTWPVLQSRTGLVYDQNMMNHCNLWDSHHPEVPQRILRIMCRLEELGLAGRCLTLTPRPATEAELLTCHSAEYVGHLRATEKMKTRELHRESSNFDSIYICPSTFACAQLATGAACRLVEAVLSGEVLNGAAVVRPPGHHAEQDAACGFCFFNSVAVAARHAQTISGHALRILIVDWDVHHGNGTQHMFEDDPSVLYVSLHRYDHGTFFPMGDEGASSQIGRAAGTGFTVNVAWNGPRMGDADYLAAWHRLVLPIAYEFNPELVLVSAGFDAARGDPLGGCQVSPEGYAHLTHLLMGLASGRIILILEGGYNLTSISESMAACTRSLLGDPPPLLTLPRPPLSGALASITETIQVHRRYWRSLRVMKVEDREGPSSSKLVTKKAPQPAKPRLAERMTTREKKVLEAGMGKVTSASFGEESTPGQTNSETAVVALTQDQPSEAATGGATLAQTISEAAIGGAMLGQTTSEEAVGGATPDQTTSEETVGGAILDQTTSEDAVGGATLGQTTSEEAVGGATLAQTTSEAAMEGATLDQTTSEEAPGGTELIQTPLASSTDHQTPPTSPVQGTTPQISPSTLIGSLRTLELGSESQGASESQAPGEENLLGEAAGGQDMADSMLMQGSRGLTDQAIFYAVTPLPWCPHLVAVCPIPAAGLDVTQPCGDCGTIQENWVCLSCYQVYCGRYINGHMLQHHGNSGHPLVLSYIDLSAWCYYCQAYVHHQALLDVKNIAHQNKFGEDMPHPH

K562 [10] = assay: Potency index, ratio of SAHA IC50 to test compound IC50 for antiproliferative activity against human K562 cell; format: functional
U-937 [11] = assay: Induction of cell cycle arrest in human U-937 cells assessed as accumulation of cells in pre-G1 phase at 1 uM for 48 hrs by PI staining based flow cytometric analysis; format: functional
U-937 [12] = assay: Induction of cell cycle arrest in human U-937 cells assessed as accumulation of cells in G2/M phase at 1 uM for 24 hrs by PI staining based flow cytometric analysis; format: functional

Sequence of Histone deacetylase 1 (Q13547 whole entry): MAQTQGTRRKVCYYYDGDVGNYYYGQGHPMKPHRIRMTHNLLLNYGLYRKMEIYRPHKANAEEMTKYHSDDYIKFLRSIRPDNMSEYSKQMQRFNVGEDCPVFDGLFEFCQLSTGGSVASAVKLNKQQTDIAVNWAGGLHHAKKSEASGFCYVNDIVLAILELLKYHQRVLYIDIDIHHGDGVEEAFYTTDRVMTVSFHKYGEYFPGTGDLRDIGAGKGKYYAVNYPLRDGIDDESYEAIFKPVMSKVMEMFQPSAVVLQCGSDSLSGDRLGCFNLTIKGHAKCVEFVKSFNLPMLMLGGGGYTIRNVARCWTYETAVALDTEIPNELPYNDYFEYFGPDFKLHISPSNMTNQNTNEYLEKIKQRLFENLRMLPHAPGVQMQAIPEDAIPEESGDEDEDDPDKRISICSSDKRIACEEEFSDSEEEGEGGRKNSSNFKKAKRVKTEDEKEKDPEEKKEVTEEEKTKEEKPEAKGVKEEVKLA

For `Nc1ccccc1NC(=O)c1ccc(NC(=O)Cc2ccc3ccccc3c2)cn1`, the IC50 (Histone deacetylase 1) was 189 nM, the IC50 (Histone deacetylase 3) was 440 nM and the IC50 (Histone deacetylase 4) was “Not Active”. For the same compound, the IC50 (Histone deacetylase 2) was 227 nM, the IC50 (Histone deacetylase 5) was “Not Active” and the IC50 [1] was 446 nM. The IC50 (HCT-116) was 430 nM, the IC50 (A549) was 1280 nM and the IC50 (K562 [2]) was 370 nM. The Activity (U-937 [3]) was 10%, the Activity (U-937 [4]; 48 h, 5 µM) was 50% and 30% and the Activity (U-937 [5]) was 100%. For the same compound, the Activity (U-937 [6]) was 70%, the IC50 (OCI-AML-3) was 4140 nM and the IC50 [7] was 155 nM. For the same compound, the IC50 (OCI-AML2) was 1500 nM, the IC50 (MV4-11) was 170 nM and the IC50 (Kasumi 1) was 257 nM. The IC50 (U-937 [8]) was 822 nM, the IC50 (HL-60) was 218 nM and the IC50 (KARPAS-299) was 9270 nM. The IC50 (NB-4) was 210 nM, the IC50 (Histone deacetylase 8) was “Not Active” and the IC50 (Histone deacetylase 7) was “Not Active”. For the same compound, the IC50 (Histone deacetylase 9) was “Not Active” and the IC50 (Histone deacetylase 11) was “Not Active”.
Work on `O=C(/C=C/c1ccc(NC(=O)C(Cc2ccccc2)c2ccccc2)cn1)NO` (configuration not stated) yielded an IC50 [9] of 11 nM, an IC50 (HCT-116) of 70 nM and an IC50 (A549) of 220 nM. For the same compound, the IC50 (K562 [2]) was 40 nM, the “Ratio IC50” value (K562 [10]) was 10 and the Activity (U-937 [3]) was 10%. The Activity (U-937 [11]) was 40%, the Activity (U-937 [4]) was 40% and the Activity (U-937 [5]) was 76%. For the same compound, the Activity (U-937 [12]) was 60% and the Activity (U-937 [6]) was 70%.
